The test system of series [1] is C57 male mice. Nature of the series: Example G: effect of stereoisomerism on survival rate of mice under 7.5Gy irradiation. Type of series: in vivo. Particulars: 200 mg/kg IP 30 min before irradiation; for deaths: 9 mice per group. The source says: Laboratory animals: C57 male mice, 19-21 g, purchased from Beijing HFK Bioscience Co. Ltd., license number SCXK (Beijing), 9 mice in each group.

The subject of series [2] is C57 male mice. Format: in vivo. Particulars: no irradiation, 30-day. On the procedure: Administration and grouping: Each group was intraperitoneally injected with one corresponding dose of amifostine. • Each group was intraperitoneally injected with one corresponding dose of Example 17 (IP).
The 30-day survival rate of mice in each group was recorded.

Series [3] relates to C57 male mice. Particulars: for survival rates compared with amifostine: absorbed dose 6.8Gy and 7.2Gy.
Experimental: Laboratory animals: C57 male mice, 8-10 weeks old, 20-22 g, were divided into 4 groups, 5 or 10 or 15 or 20 or 25 mice in each group.
Observation index: The death and weight of the mice were recorded, and the survival rate was calculated on the 30th day.
Series [4] has as its system C57BL/6 mice. Nature of the series: Example A: 30-day survival of mice after whole-body 137Cs γ-ray irradiation. Type of series: in vivo. Particulars: 200 mg/kg intraperitoneally. Here is the method:
Material: The gamma ray irradiation device is a ^137Cs irradiator, with a dose rate of 0.7Gy/min. C57BL/6 mice, male, weighing 21-22 g, purchased from Beijing HFK Bioscience Co. Ltd., certificate number SCXK (Beijing) 2014-0004, grouped as: no irradiation group, irradiation and blank solvent group, irradiation and administration group, with 5 mice in each group.
The 30-day survival of the mice in each group was observed, the survival rates were calculated, the body weights were followed, and the organs and white blood cells of mice in each group were compared after 30 days.
Results: At the same administration dose of the four compounds (200 mg/kg, one dose at 24 hours before irradiation and one dose at 30 minutes before irradiation), one-time whole body irradiation with 6.8Gy, 7.2Gy and 7.5Gy ^137Cs gamma rays was performed, respectively, compared with the radiation and blank solvent group. The 30-day survival rate of mice was 100% when compound 1 was used in the cases of irradiations of 6.8Gy and 7.2Gy, respectively. The effects of normal control group and compound 1, compound 2, compound 3 and compound 4 on organs and leukocytes in mice 30 days after irradiation with 7.2Gy are shown in FIG. 4. The effects of normal control group and compound 1 on organs and leukocytes in mice 30 days after irradiation with 6.8Gy and 7.5Gy, respectively, are shown in FIGS. 2 and 6.

Where [5] appears, read: 6.8Gy, 200 mpk IP 30 min before irradiation, day 30.
Where [6] appears, read: 7.5Gy, 400 mpk IP 90 min before irradiation.
[7] abbreviates: 7.5Gy, 800 mpk IP 90 min before irradiation.

Here are results for 10 compounds from patent publication US11008286B2, “Amino mercaptan compound and preparation method therefor and use thereof in protection against radiation” (Institute of Radiation Medicine Chinese Academy of Medical …, priority 2016, dated 2021).

Counter-ions that a name gives are not always drawn. Like-named read-outs stand apart in the source and are kept apart here. Where a SMILES comes first, the peptide text is derived from it. [ ]: non-standard residue; d: D form.
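For survival rates compared with amifostine in this document: mice aged 8-10 weeks, weighing 20-22 g, with deaths logged and survival rate computed on day 30.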

For `CNC(=O)C(CS)NC(=O)C(CS)NC(=O)C(CS)NC` (racemic) [Example 20, (RS)-3-mercapto-N—((RS)-3-mercapto-1-(((RS)-3-mercapto-1-(methylamino)-1-oxopropan-2-yl)amino)-1-oxopropan-2-yl)-2-(methylamino) propanamide trifluoroacetate], in series [1], the “Survival number/Test number” value was 1/9 and the deaths entry is recorded as “(8 deaths)”.

Take `NC(=O)[C@H](CS)NC(=O)[C@H](N)CS` [Example 17, (S)-2-amino-N—((R)-1-amino-3-mercapto-1-oxopropan-2-yl)-3-mercaptopropanamide trifluoroacetate] (H-[dC]-Cys-NH2): the “Survival number/Test number” value in series [2] (400 mpk IP) is 5/5; in series [2] (800 mpk IP) it was 5/5; in series [2] (1600 mpk IP), 4/5; in series [3] (setting [5]) it was 5/5; in series [3] (7.2Gy, 200 mpk IP, day 30), 9/10; in series [3] (7.5Gy, 200 mpk IP, day 30), 0/5. In addition, the “Survival number/Test number” value in series [3] (setting [6]) and in series [3] (setting [7]) was 0/5 each time. In addition, the Survival rate in series [3] (setting [5]) stood at 100%; in series [3] (7.2Gy, 200 mpk IP, day 30) it was 90%; in series [3] (7.5Gy, 200 mpk IP, day 30), 0%; in series [3] (setting [6]), 0%; in series [3] (setting [7]) it was 0%. Besides, the “survival rates compared with amifostine” value in series [3] was “survival rates comparable to those using amifostine”.

In the case of `NC(=O)[C@H](CS)NC(=O)[C@H](CS)NC(=O)[C@@H](N)CS` [Example 3, (R)-2-amino-N—((R)-1-(((R)-1-amino-3-mercapto-1-oxopropan-2-yl)amino)-3-mercapto-1-oxopropan-2-yl)-3-mercaptopropanamide trifluoroacetate] (H-Cys-Cys-Cys-NH2), in series [1], the “Survival number/Test number” value is 2/9, the Survival rate entry is “approximately 22%” and the deaths entry is listed as “(7 deaths)”. For the same compound, in series [3] (7.2Gy, 200 mpk IP, day 30), the “Survival number/Test number” value was 10/15 and the Survival rate worked out at 66.67%. The “survival rates compared with amifostine” value in series [3] was “survival rates comparable to those using amifostine”.

With `N[C@H](CS)C(=O)O` [D-Cys, D-cysteine, reference compound], in series [1], the “Survival number/Test number” value is reported as 0/9 and the deaths result was “(9 deaths)”.

On to `CNC(=O)[C@@H](CS)NC(=O)[C@@H](CS)NC(=O)[C@@H](CS)NC` [Example 8, (S)-3-mercapto-N—((S)-3-mercapto-1-(((S)-3-mercapto-1-(methylamino)-1-oxopropan-2-yl)amino)-1-oxopropan-2-yl)-2-(methylamino) propanamide], for which, in series [3] (7.2Gy, 200 mpk IP, day 30), the “Survival number/Test number” value is 1/5 and the Survival rate came out at 20%. Besides, the “survival rates compared with amifostine” value in series [3] is on record as “survival rates comparable to those using amifostine”.

As for `NC(=O)[C@@H](CS)NC(=O)[C@@H](N)CS` [Example 18, (R)-2-amino-N—((S)-1-amino-3-mercapto-1-oxopropan-2-yl)-3-mercaptopropanamide trifluoroacetate] (H-Cys-[dC]-NH2), in series [3] (7.2Gy, 200 mpk IP, day 30), the “Survival number/Test number” value is on record as 4/5 and the Survival rate amounted to 80%. In addition, in series [3], the “survival rates compared with amifostine” value was “survival rates comparable to those using amifostine”.

`N[C@@H](CS)C(=O)O` [L-Cys, L-cysteine, reference compound]: in series [1], the “Survival number/Test number” value is on record as 1/9 and the deaths entry is on record as “(8 deaths)”.

Take `NC(=O)[C@H](CS)NC(=O)[C@@H](N)CS` [Example 1, (R)-2-amino-N—((R)-1-amino-3-mercapto-1-oxopropan-2-yl)-3-mercaptopropanamide trifluoroacetate] (H-Cys-Cys-NH2): in series [4] (6.8Gy 137Cs γ rays whole body), the 30-day survival rate turned out to be 100%. Moreover, the 30-day survival rate in series [4] (7.2Gy 137Cs γ rays whole body) stood at 100%. For the same compound, in series [1], the “Survival number/Test number” value is 1/9, the Survival rate result was “approximately 11%” and the deaths entry was “(8 deaths)”. In series [3] (7.2Gy, 200 mpk IP, day 30), the “Survival number/Test number” value was 6/10 and the Survival rate is on record as 60%. Also, in series [3], the “survival rates compared with amifostine” value was “survival rates comparable to those using amifostine”.

On to `CNC(=O)C(CS)NC(=O)C(CS)NC` (racemic) [Example 19, 3-mercapto-N-(3-mercapto-1-(methylamino)-1-oxopropan-2-yl)-2-(methylamino) propionamide trifluoroacetate], for which, in series [1], the “Survival number/Test number” value was 2/9 and the deaths result was “(7 deaths)”.

As to `CNC(=O)[C@H](CS)NC(=O)[C@H](CS)NC` [Example 2, (R)-3-mercapto-N—((R)-3-mercapto-1-(methylamino)-1-oxopropan-2-yl)-2-(methylamino) propionamide trifluoroacetate], in series [1], the “Survival number/Test number” value is 4/9, the Survival rate result was “approximately 44%” and the deaths entry is on record as “(5 deaths)”. Further, in series [3] (7.2Gy, 200 mpk IP, day 30), the “Survival number/Test number” value was 10/15 and the Survival rate stood at 66.67%. For the same compound, the “survival rates compared with amifostine” value in series [3] was “survival rates comparable to those using amifostine”.
